Structures can show the parent of a compound that is named as a salt.

One test deals with T1, human, citrated, platelet-rich plasma (Homo sapiens, UniProt P05106+P08514).
T1 construct: aggregating human, citrated, platelet-rich plasma; endogenous in cells; host or cells: human platelets in citrated platelet-rich plasma
T1 sequence (P08514 32-887 limits assumed): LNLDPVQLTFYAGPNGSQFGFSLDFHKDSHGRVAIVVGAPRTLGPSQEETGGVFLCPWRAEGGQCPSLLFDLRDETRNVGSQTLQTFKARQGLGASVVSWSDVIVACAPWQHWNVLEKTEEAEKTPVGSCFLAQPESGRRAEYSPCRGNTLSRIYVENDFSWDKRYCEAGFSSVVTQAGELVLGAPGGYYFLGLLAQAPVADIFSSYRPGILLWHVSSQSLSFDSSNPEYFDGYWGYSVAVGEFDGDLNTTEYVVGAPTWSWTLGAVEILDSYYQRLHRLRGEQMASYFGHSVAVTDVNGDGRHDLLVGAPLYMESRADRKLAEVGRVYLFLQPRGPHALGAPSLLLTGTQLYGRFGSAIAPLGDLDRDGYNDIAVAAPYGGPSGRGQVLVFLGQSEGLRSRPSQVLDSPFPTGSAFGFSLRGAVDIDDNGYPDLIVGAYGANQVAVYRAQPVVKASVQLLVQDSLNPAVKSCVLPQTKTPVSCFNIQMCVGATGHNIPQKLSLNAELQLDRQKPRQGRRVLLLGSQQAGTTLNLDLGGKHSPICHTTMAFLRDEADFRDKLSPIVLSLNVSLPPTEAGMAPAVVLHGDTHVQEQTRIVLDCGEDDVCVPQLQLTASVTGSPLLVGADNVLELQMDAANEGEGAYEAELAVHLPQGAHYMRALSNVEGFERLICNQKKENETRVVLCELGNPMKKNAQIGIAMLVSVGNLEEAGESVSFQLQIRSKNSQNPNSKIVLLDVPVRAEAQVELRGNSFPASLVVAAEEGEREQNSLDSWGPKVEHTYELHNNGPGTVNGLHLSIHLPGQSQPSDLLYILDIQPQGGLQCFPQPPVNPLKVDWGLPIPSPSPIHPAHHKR
T1 sequence (P08514 891-1039 limits assumed): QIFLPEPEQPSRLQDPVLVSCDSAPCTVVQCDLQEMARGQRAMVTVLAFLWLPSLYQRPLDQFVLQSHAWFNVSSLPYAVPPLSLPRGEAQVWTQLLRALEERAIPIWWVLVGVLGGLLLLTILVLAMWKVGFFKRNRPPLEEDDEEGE
T1 sequence (P05106 27-788): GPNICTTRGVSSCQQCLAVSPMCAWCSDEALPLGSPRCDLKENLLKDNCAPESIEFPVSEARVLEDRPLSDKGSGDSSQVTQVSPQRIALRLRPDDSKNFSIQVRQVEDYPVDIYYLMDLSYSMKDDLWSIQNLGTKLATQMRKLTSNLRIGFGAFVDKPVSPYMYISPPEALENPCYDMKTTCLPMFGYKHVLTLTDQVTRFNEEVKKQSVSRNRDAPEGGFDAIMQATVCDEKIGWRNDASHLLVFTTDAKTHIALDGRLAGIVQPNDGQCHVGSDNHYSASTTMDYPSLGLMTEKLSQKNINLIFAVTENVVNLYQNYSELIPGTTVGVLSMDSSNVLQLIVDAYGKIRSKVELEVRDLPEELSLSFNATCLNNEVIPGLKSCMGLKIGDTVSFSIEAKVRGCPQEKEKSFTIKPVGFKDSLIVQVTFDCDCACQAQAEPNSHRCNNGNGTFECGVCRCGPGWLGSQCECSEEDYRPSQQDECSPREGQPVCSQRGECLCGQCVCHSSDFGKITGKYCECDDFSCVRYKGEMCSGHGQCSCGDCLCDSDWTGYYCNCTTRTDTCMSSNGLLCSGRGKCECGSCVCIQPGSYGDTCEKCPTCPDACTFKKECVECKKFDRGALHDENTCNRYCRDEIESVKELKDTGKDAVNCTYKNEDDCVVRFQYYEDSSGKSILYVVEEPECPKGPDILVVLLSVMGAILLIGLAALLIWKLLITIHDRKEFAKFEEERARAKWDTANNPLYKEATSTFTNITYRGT
The experiment in a line: Test (a): inhibition of ADP stimulated platelet aggregation (Born). The format is cell-based. Particulars: ADP induced aggregation of human platelet-rich plasma. The text has this: (i) aggregating human, citrated, platelet-rich plasma by addition of adenosine diphosphate so as to generate a dose-response curve;
(ii) generating a dose-response curve for ADP stimulated platelet aggregation in the presence of increasing amounts of a test compound (generally in the range 10-^5 M to 10-^10 M); and
(iii) calculating a pA2 value indicating potency of platelet aggregation inhibition for the test compound, averaged over several concentrations, from the calculated 50% response value for ADP aggregation in the presence and absence of the test compound.
In the case of `O=C(O)CCCCCOc1ccc(Nc2ccncc2)cc1` [Example 188, 6-[4-(4-Pridylamino)phenoxy]hexanoic acid hydrochloride], the “Test (a): pA2 value indicating potency of platelet aggregation inhibition” value is 6.0.

The same test, now with this note: ADP induced aggregation of human platelet-rich plasma; read-out: Test (a): pA2 value indicating potency of platelet aggregation inhibition (converted).
As to `COC(=O)COc1ccc(C(=O)CN2CCN(c3ccnc4ccccc34)CC2)cc1` [Example 43, Methyl 4-[2-[4-(4-quinolinyl)piperazin-1-yl]acetyl]phenoxyacetate], the Kb was 39800 nM.
Consider `O=C(O)COc1ccc2nccc(N3CCN(c4ccncc4)CC3)c2c1` [Example 71, 4-[[4-(4-Pyridyl)piperazin-1-yl]quinolin-6-yl]oxyacetic acid], for which the Kb was 12600 nM.
Still for that read-out and setting: in the case of `COC(=O)COc1ccc(C(=O)C(C)N2CCN(c3ccncc3)CC2)cc1OCC(=O)OC` (centres unmarked) [Example 78] it was 158 nM.
The same measure, in the same setting: in the case of `O=C(O)CC1CCN(C(=O)CN2CCN(c3ccncc3)CC2)CC1` [Example 30, 2-[1-[2-[4-(4-Pyridyl)piperazin-1-yl]acetyl]piperidin-4-yl]acetic acid] it was 5010 nM; in that of `O=C(O)CC1(O)CCC(N2CCN(c3ccncc3)CC2)CC1` (stereo not drawn) [Example 102, cis-1-Hydroxy-4[4-(4-pyridyl)piperazin-1-yl]cyclohexaneacetic acid], 2000 nM; in that of `CCOC(=O)COc1ccc(C(=O)CN2CCN(c3ccncc3)CC2=O)cc1` [Example 215, Ethyl 4-[2-[4-(4-pyridyl)piperazin-2-one-1-yl]acetyl]phenoxyacetate], 126 nM.
With `C=CCc1cc(N2CCN(c3ccncc3)CC2)ccc1OCCCC(=O)OCC` [Example 205, Ethyl 4-[2-allyl-4-[4-(4-pyridyl)piperazin-1-yl]phenoxy]butyrate], the Kb was 251 nM.
The same measure, in the same setting: in the case of `CCOC(=O)CCCOc1ccc(N2CCN(c3ccncc3)CC2=O)cc1` [Example 242, Ethyl 4-[4-[4-(4-pyridyl)piperazin-2-one-1yl]phenoxy]butyrate] it was 316 nM; in that of `COC(=O)c1ccc(Oc2ccc(N3CCN(c4ccncc4)CC3)cc2)nc1` [Example 232, Methyl 6-[4-[4-(4-pyridyl)piperazin-1-yl]phenoxy]pyridine-3-carbxylate], 31600 nM.
The same measure, in the same setting: in the case of `CCCCS(=O)(=O)NC(CCOc1ccc(N2CCN(c3ccncc3)CC2)cc1)C(=O)OC` (racemic) [Example 218, RS Methyl 2-n-butanesulphonylamino-4-[4-[4-(4-pyridyl)piperazin-1-yl]phenoxy]butyrate] it was 1000 nM.
Still for that read-out and setting: in the case of `O=C(O)CCCc1ccc(CN2CCN(c3ccncc3)CC2)cc1` [Example 180, 4-[4-[4-(4-Pyridyl)piperazin-1yl]methylphenyl]butyric acid, dihydrochloride] it was 3160 nM; in that of `CN(C)c1ccncc1CCCOc1ccc(C[C@H](NC(=O)OCc2ccccc2)C(=O)O)cc1` [Example 225], 158 nM; in that of `Cc1cc(C(=O)CN2CCN(c3ccncc3)CC2=O)ccc1OCC(=O)O` [Example 241, [2-Methyl-4-[2-[4-(4-pyridyl)piperazin-2-one-1-yl]acetyl]]phenoxyacetic acid], 6.31 nM.
As to `CCCCS(=O)(=O)NC(CCOc1ccc(N2CCN(c3ccncc3)CC2)cc1)C(=O)O` (racemic) [Example 219, RS 2-n-Butanesulphonylamino-4-[4-[4-(4-pyridyl)piperazin-1-yl]phenoxy]butyricacid], the Kb is 31.6 nM.
Still for that read-out and setting: in the case of `CCOC(=O)CCCOc1ccc(N2CCN(c3ccncc3)CC2)cc1C` [Example 209, Ethyl 4-[2-methyl-4-[4-(4-pyridyl)piperazin-1-yl]phenoxy]butyrate] it was 200 nM.
Still for that read-out and setting: in the case of `CC(C)(C)OC(=O)NC(CCOc1ccc(N2CCN(c3ccncc3)CC2)cc1)C(=O)O` (racemic) [Example 212, RS 2-t-Butoxycarbonylamino-4-[4-[4-(4-pyridyl)piperazin-1-yl]phenoxy]butyric acid] it was 79.4 nM.
On the same count and under the same terms, in the case of `CCOC(=O)CCCOc1ccc(N2CCN(c3ccncc3)CC2)cc1[N+](=O)[O-]` [Example 217, Ethyl 4-[2-nitro-4-[4-(4-pyridyl)piperazin-1-yl]phenoxy]butyrate] it was 316 nM; in that of `O=C(O)CC(COc1ccc(N2CCN(c3ccncc3)CC2)cc1)Cc1ccccc1` (racemic) [Example 220, RS 3-Benzyl-4-[4-[4-(4-pyridyl)piperazin-1-yl]phenoxy]-butyric acid], 3160 nM; in that of `O=C(O)CCC(=O)Nc1ccc(N2CCN(c3ccncc3)CC2)cc1` [Example 199, 4-Oxo-4-[4-[4-(4-pyridyl)piperazine-1-yl]phenyl]aminobutyric acid], 501 nM.
`O=C(O)CN1CCCC(Oc2ccc(N3CCN(c4ccncc4)CC3)cc2)C1` (centres unmarked) [Example 239]: the Kb was 2510 nM.
On the same count and under the same terms, in the case of `CCOC(=O)CCCCCOc1ccc(Nc2ccncc2)cc1` [Example 187, Ethyl 6-[4-(4-pyridylamino)phenoxy]hexanoate] it was 15800 nM; in that of `O=C(O)CCN(Cc1ccccc1)C(=O)c1ccc(N2CCN(c3ccncc3)CC2)cc1` [Example 236, 3-[4-[4-(4-Pyridyl)piperazin-1-yl]]-N-benzylbenzamidopropionic acid], 794 nM.
On the same count and under the same terms, in the case of `CCCc1cc(N2CCN(c3ccncc3)CC2)ccc1OCCCC(=O)O` [Example 208, 4-[2-n-Propyl4-[4-(4-pyridyl)piperazin-1-yl]phenoxy]butyric acid] it was 316 nM; in that of `O=C(O)CC(COc1ccc(N2CCN(c3ccncc3)CC2)cc1)c1ccccc1` (racemic) [Example 221, RS 3-Phenyl-4-[4-[4-(4-pyridyl)piperazin-1-yl]phenoxy]-butyric acid], 158 nM.
Same read-out and setting: in the case of `O=C(O)CN1CCC(Oc2ccc(N3CCN(c4ccncc4)CC3)cc2)CC1` [Example 238, 4-[4-[4-(Pyridyl)piperazin-1-yl]phenoxy]piperidineacetic acid] it was 1260 nM; in that of `CCOC(=O)CNC(=O)COc1ccc(C(=O)CN2CCN(c3ccncc3)CC2=O)cc1` [Example 216, Ethyl N 4-[2-(4-(4-pyridyl)piperazin-2-one-1-yl)acetyl]phenoxyacetylglycinate], 2000 nM.
For `CCCc1cc(C(=O)CN2CCN(c3ccncc3)CC2=O)ccc1OCC(=O)O` [Example 240, [2-Propyl-4-[2-[4-(4-pyridyl)piperazin-2-one-1-yl]acetyl]]phenoxyacetic acid], the Kb is 25.1 nM.
For the molecule `Cc1cc(N2CCN(c3ccncc3)CC2)ccc1OCCCC(=O)O` [Example 210, 4-[2-Methyl-4-[4-(4-pyridyl)piperazin-1-yl]phenoxy]-butyric acid], the Kb was 316 nM.
Still for that read-out and setting: in the case of `O=C(O)CCCOc1ccc(N2CCN(c3ccncc3)CC2=O)cc1` [Example 243, 4-[4-[4-(4-Pyridyl)piperazin-2-one-1-yl]phenoxy]butyric acid] it was 10 nM.

In another test the target is T2, purified human platelet fibrinogen receptor (GPIIb/IIIa) (Homo sapiens, UniProt P05106+P08514).
T2 construct: is isolated from human platelet lysates; from tissue
T2 sequence (P08514 32-887 limits assumed): as the sequence (P08514 32-887 limits assumed) above
T2 sequence (P08514 891-1039 limits assumed): as the sequence (P08514 891-1039 limits assumed) above
T2 sequence (P05106 27-788): as the sequence (P05106 27-788) above
The experiment in a line: Test (b): GPIIb/IIIa ELISA, inhibition of biotinylated fibrinogen binding. Particulars: purified human platelet GPIIb/IIIa, ELISA; read-out: Test (b): pIC50 (-log(IC50)), 50% inhibition of biotinylated fibrinogen binding to GPIIb/IIIa (converted). The method, then:
(i) Preparation of human platelet lysates.
Platelet rich plasma (PRP) is harvested by centrifugation (1000 rpm, 15 mins) of whole blood anticoaoulated with acid citrate dextrose (trisodium citrate 85 mM, citric acid 70 mM, d-glucose 110 mM) 1 part to 6 parts blood. Prostacyclin (PGI2, 1 μM) is added to the PRP before centrifugation (2400 pm, 15 mins) and the resulting pellet is resuspended in modified Tyrodes' solution (NaCl 130 mM, KCl 26 mM, NaHCO3 12 mM, NaH2 PO4 0.5 mM, MgCl2 1 mM, CaCl2 20 mM, Glucose 12 mM, HEPES 5 mM) containing bovine serum albumin 3.5 g/L, PGI2 1 μM and hirudin 0.5 U/ml. The platelet suspension is centrifuged (2400 rpm, 15 mins) and the resultant pellet resuspended in 500 μl of lysis buffer (octyl glucoside 50 mM, HEPES 10 mM, NaCl 150 mM, CaCl2 1 mM, MgCl2 1 mM, PMSF 1 mM, NEM 10 mM, leupeptin 0.1 mM), agitated at 4° C. for 15 minutes then centrifuged at 24000 rpm, 15 mins. The supernatant is stored at 4° C. and the pellet re-suspended in 500 μl of lysis buffer. The centrifugation process is repeated a further 3 tlimes, the pooled supernatants being stored at -70° C.
(ii) Receptor purification.
GP Ilb/Ila is isolated from human platelet lysates using a 2 ml peptide (KYGRGDS) coupled CNBr activated Sepharose affinity column. A 1.5 ml volume of platelet lysate is placed on the column and allowed to stand overnight at 4° C. Buffer (30 mls, octyl gluicoside 25 mM, HEPES 10 mM, NaCl 150 mM, CaCl2 1 mM, MgCl2 1 mM, PMSF 1 mM, NEM 10 mM, leupeptin 0.1 mM) is passed through the column and 2 ml fractions are collected throughout. GPIIb/IIIa is eluted with 12 mls of buffer containing HHLGGAKQAGDV (2 mg/ml, pH 7.5), the column is washed using 4 mls buffer and the remaining GPIIb/IIIa eluted using 12 mls buffer containing GRGDSPG (1 mg/ml pH 7.5). The column is finally washed using 20 mls of buffer and can be used for up to three such preparations. Fractions containing FGPIIb/IIIa are identified using gel electrophoresis and immunoblotting, pooled and stored at -70° C.
96 well microtitre plates are coated with 100 μl purified human platelet fibrinogen receptor (GPIIb/IIIa) diluted in coating buffer (Tris-HCl 20 mM, NaCl 150 mM, CaCl2 1 mM, pH 7.4) and left overnight at 4° C. The plates are washed using washing buffer (Tris-HCl 50 mM, NaCl 100 mM, CaCl2 2 mM, pH 7.4) and non-specific binding, blocked by the addition of 200 μl 2% BSA (2 hours, 30° C.). The plates are washed prior to incubation (2 hours, 30° C.) with 100 μl biotinylated fibrinogen ([…]) containing either vehicle or test compound. The plates are washed, incubated with streptavidin (5 μg/ml, 1 hour, ambient temperature), then washed again before the addition of 100 μl biotinylated horse radish peroxidase (0.1 μg/ml, 1 hour, ambient temperature). The plates are then washed and equal volumes of peroxidase substrate (3, 5, tetramethyl benzidine 0.4 g/l) and H2 O2 (0.02%) are mixed together immediately before addition of 150 μl to each well. Colour is allowed to develop for 10-15 mins before optical densities are read at 650 nm.
The concentration of compound required to cause 50% inhibition of biotinylated fibrinogen binding, is calculated and expressed as a pIC50 (-log(IC50)).
With `COC(=O)COc1ccc(C(=O)CN2CCN(c3ccnc4ccccc34)CC2)cc1` [Example 43, Methyl 4-[2-[4-(4-quinolinyl)piperazin-1-yl]acetyl]phenoxyacetate], the IC50 was 3160 nM.
Still for that read-out and setting: in the case of `O=C(O)COc1ccc2nccc(N3CCN(c4ccncc4)CC3)c2c1` [Example 71, 4-[[4-(4-Pyridyl)piperazin-1-yl]quinolin-6-yl]oxyacetic acid] it was 39800 nM.
Still for that read-out and setting: in the case of `COC(=O)COc1ccc(C(=O)C(C)N2CCN(c3ccncc3)CC2)cc1OCC(=O)OC` (centres unmarked) [Example 78] it was 251 nM; in that of `O=C(O)CC1CCN(C(=O)CN2CCN(c3ccncc3)CC2)CC1` [Example 30, 2-[1-[2-[4-(4-Pyridyl)piperazin-1-yl]acetyl]piperidin-4-yl]acetic acid], 1260 nM; in that of `O=C(O)CC1(O)CCC(N2CCN(c3ccncc3)CC2)CC1` (stereo not drawn) [Example 102, cis-1-Hydroxy-4[4-(4-pyridyl)piperazin-1-yl]cyclohexaneacetic acid], 1580 nM.

These data come from patent US5750754A, “Heterocyclic compounds” (Zeneca Limited, priority 1993, dated 1998).
